This is an account of results in US11306056B2 (Cardioxyl Pharmaceuticals, Inc., priority 2006, dated 2022).

A word on the melting point: it is the temperature of the solid-liquid transition.

Data set [1] relates to myocardial ischemia/reperfusion injury. Particulars: anesthetized rabbits, given during ischemia and 5 minutes prior to reperfusion; cited from earlier work.
Data set [2] has as its system ischemia/reperfusion injury. Particulars: pre-ischemic administration; cited from earlier work.
Another data set concerns rat renal tissue. Particulars: rat kidney, given during ischemia and 5 minutes before reperfusion; cited from earlier work.
Data set [3] in a line: Decomposition kinetics (HNO release) monitored by UV-Vis spectroscopy. It is filed as physicochemical. Particulars: for half-life: pH 7.4, decomposition half-life, pH 7.4, 37° C., compounds 5, 7-10 not first-order, approximate half-lives; for kO2/kAr: ratio of oxygen-dependent to argon decomposition rate, 0.1 M PBS pH 7.4, 37° C. The procedure: The decomposition rates of the compounds may be determined by UV-Vis spectroscopy.
The decomposition of compounds 1-4 and 6 from Example 1 was monitored by UV-Vis spectroscopy in 0.1 M PBS buffer at pH 7.4 and 37° C. The spectral behavior was isosbestic and the time course fit well to a single exponential. […] Decomposition kinetics for compounds 5, 7-10 of Example 1 are not first-order and thus only approximate half-lives are reported. Compounds with more than one number in a single column in the table below indicates the results of two experiments for the same compound.

[4] abbreviates: aerated 0.1 M PBS buffer, aerated 0.1 M PBS buffer, read-out: t1/2 (air).
Setting [5] is: argon-saturated 0.1 M PBS buffer, argon-saturated 0.1 M PBS buffer, read-out: t1/2 (Ar).

Where two headings read alike, the source gives them in different places.

In the case of `[Na+].[Na+].[O-][N+]([O-])=NO` [AS, sodium dioxotrinitrate], the “effect on myocardial ischemia/reperfusion injury” value in data set [1] is recorded as “increased myocardial ischemia/reperfusion injury”. In data set [2], the “effect on ischemia/reperfusion injury” value is “prevent or reduce ischemia/reperfusion injury”. Also, the “neutrophil infiltration into renal tissue” value in the data set with rat renal tissue is reported as “contributed to neutrophil infiltration into the tissue”.

With `N#Cc1ccc(S(=O)(=O)NO)cc1` [Compound 9, 4-Cyano-N-hydroxybenzenesulfonamide], the melting point is 151 to 155 °C (dec.). In addition, the half-life in data set [3] (setting [4]) amounted to 4 min. Further, the half-life in data set [3] (setting [5]) worked out at 17.8 min.

Consider `O=S(=O)(NO)c1cc(Cl)sc1Cl` [Compound 6, 2,5-Dichlorothiophene-3-sulfohydroxamic acid], for which the kO2/kAr in data set [3] amounted to 2.52.

In the case of `O=S(=O)(NO)c1ccc(F)cc1` [Compound 7, 4-Fluoro-N-hydroxybenzenesulfonamide], the half-life in data set [3] (setting [4]) turned out to be 10 min; in data set [3] (setting [5]) it was 72.1 min.

As for `O=S(=O)(NO)c1ccccc1Br` [Compound 3, 2-Bromo-N-hydroxybenzenesulfonamide], the melting point is 156 to 159 °C (dec.). Also, the half-life in data set [3] (setting [4]) worked out at 0.68 min. Besides, the half-life in data set [3] (setting [5]) worked out at 1.05 min. In addition, the kO2/kAr in data set [3] was found to be 0.55.

On to `O=S(=O)(NO)c1ccccc1C(F)(F)F` [Compound 4, 2-(Trifluoromethyl)-N-hydroxybenzenesulfonamide], for which the melting point was 124 to 127 °C (dec.). Besides, in data set [3] (setting [4]), the half-life was 0.55 min. Moreover, the half-life in data set [3] (setting [5]) came to 0.96 min. Moreover, the kO2/kAr in data set [3] came out at 0.75.

Consider `CC(C)N[N+]([O-])=N[O-].[Na+]` [isopropylamine/NO], for which, in data set [2], the “effect on ischemia/reperfusion injury” value was “prevent or reduce ischemia/reperfusion injury”.

Consider `O=[N+]([O-])c1ccc(S(=O)(=O)NO)cc1` [Compound 10, 4-Nitro-N-hydroxybenzenesulfonamide], for which the half-life in data set [3] (setting [4]) turned out to be 3.3 min.

`O=S(=O)(NO)c1ccccc1F` [Compound 1, 2-Fluoro-N-hydroxybenzenesulfonamide] returned a melting point of 127 to 129 °C. Besides, the half-life in data set [3] (setting [4]) worked out at 2.67 min. Besides, in data set [3] (setting [5]), the half-life was determined as 17.5 min. In addition, the kO2/kAr in data set [3] is reported as 5.82.

`O=S(=O)(NO)c1ccccc1Cl` [Compound 2, 2-Chloro-N-hydroxybenzenesulfonamide]: the melting point is 152 to 155 °C (dec.). In data set [3] (setting [4]), the half-life is 1.75 min. For the same compound, in data set [3] (setting [5]), the half-life was 3.61 min. The kO2/kAr in data set [3] is on record as 1.06.

Regarding `O=S(=O)(NO)c1ccc(C(F)(F)F)cc1` [Compound 8, 4-(Trifluoromethyl)-N-hydroxybenzenesulfonamide], the melting point is 117 to 121 °C (dec.). Moreover, in data set [3] (setting [4]), the half-life came out at 7 min. Further, the half-life in data set [3] (setting [5]) was 33 min.
